Reference: patent US12187746B2, “C26-linked rapamycin analogs as mTOR inhibitors” (Revolution Medicines, Inc., priority 2018, dated 2025)

What was measured:
P-P70S6K (T389) = assay: Cell based AlphaLISA assay, inhibition of P-P70S6K (T389) in MDA-MB-468 cells; conditions: Homo sapiens, 4 h, 0.017-1,000 nM, two to four hours at 37° C., AlphaLisa SureFire Ultra, read-out: pIC50 for Inhibition of mTORC1 and mTORC2 Substrate Phosphorylation, p-P70S6K-(T389) (converted)
Procedure: (§1) Cell Based AlphaLISA Assays For Determining IC50 For Inhibition of P-Akt (S473), P-4E-BP1 (T37/46), and P-P70S6K (T389) in MDA-MB-468 Cells
(§2) mTOR Kinase Cellular Assay
(§3) To measure functional activity of mTORC1 and mTORC2 in cells the phosphorylation of 4EBP1 (Thr37/46) and P70S6K (Thr389), and AKT1/2/3 (Ser473) was monitored using AlphaLisa SureFire Ultra Kits (Perkin Elmer). […] Incubations are terminated by removal of the assay buffer and addition of lysis buffer provided with the assay kit. Samples are processed according to the manufacturer's instructions. The Alpha signal from the respective phosphoproteins is measured in duplicate using a microplate reader (Envision, Perkin-Elmer or Spectramax M5, Molecular Devices). Inhibitor concentration response curves are analyzed using normalized IC50 regression curve fitting with control based normalization.

P-4E-BP1 (T37/46) = assay: Cell based AlphaLISA assay, inhibition of P-4E-BP1 (T37/46) in MDA-MB-468 cells; conditions: Homo sapiens, 4 h, 0.017-1,000 nM, two to four hours at 37° C., AlphaLisa SureFire Ultra, read-out: pIC50 for Inhibition of mTORC1 and mTORC2 Substrate Phosphorylation, p-4E-BP1-(T37/46) (converted)
Procedure: as §1, §2, §3

P-Akt (S473) = assay: Cell based AlphaLISA assay, inhibition of P-Akt (S473) in MDA-MB-468 cells; conditions: Homo sapiens, 4 h, 0.017-1,000 nM, two to four hours at 37° C., AlphaLisa SureFire Ultra, read-out: pIC50 for Inhibition of mTORC1 and mTORC2 Substrate Phosphorylation, p-AKT1/2/3-(S473) (converted)
Procedure: as §1, §2, §3

Compound	IC50 (P-P70S6K (T389)) [µM]	IC50 (P-4E-BP1 (T37/46)) [µM]	IC50 (P-Akt (S473)) [µM]
CO[C@H]1C[C@@H]2CC[C@@H](C)[C@@](O)(O2)C(=O)C(=O)N2CCCC[C@H]2C(=O)O[C@H]([C@H](C)C[C@@H]2CC[C@@H](O)[C@H](OC)C2)C[C@@H](O)[C@H](C)/C=C(\C)[C@@H](O)[C@@H](OC)/C(=N/OCC(=O)NCCOCCOCCOCCOCCOCCOCCC(=O)NCCCCn2nc(-c3ccc4oc(N)nc4c3)c3c(N)ncnc32)[C@H](C)C[C@H](C)/C=C/C=C/C=C/1C [Example 3]	< 0.001	0.00316 to 0.0316	0.0316 to 1
CO[C@H]1C[C@@H]2CC[C@@H](C)[C@@](O)(O2)C(=O)C(=O)N2CCCC[C@H]2C(=O)O[C@H]([C@H](C)C[C@@H]2CC[C@@H](O)[C@H](OC)C2)C[C@@H](O)[C@H](C)/C=C(\C)[C@@H](O)[C@@H](OC)C(=NOCC(=O)NCc2cnc(N3CCN(C(=O)CCCN4CCN(c5ncc(C(=O)N6CCc7cc(Cn8nc(-c9ccc%10oc(N)nc%10c9)c9c(N)ncnc98)ccc7C6)cn5)CC4)CC3)nc2)[C@H](C)C[C@H](C)/C=C/C=C/C=C/1C [Example 65]	0.001 to 0.01	0.00316 to 0.0316	> 1
CO[C@H]1C[C@@H]2CC[C@@H](C)[C@@](O)(O2)C(=O)C(=O)N2CCCC[C@H]2C(=O)O[C@H]([C@H](C)C[C@@H]2CC[C@@H](O)[C@H](OC)C2)C[C@@H](O)[C@H](C)/C=C(\C)[C@@H](O)[C@@H](OC)C(=NOCC(=O)NCc2cnc(N3CCN(C(=O)CCCN4CCN(c5ncc(C(=O)NCCCCn6nc(-c7ccc8oc(N)nc8c7)c7c(N)ncnc76)cn5)CC4)CC3)nc2)[C@H](C)C[C@H](C)/C=C/C=C/C=C/1C [Example 37]	< 0.001	0.00316 to 0.0316	0.00316 to 0.0316
CO[C@H]1C[C@@H]2CC[C@@H](C)[C@@](O)(O2)C(=O)C(=O)N2CCCC[C@H]2C(=O)O[C@H]([C@H](C)C[C@@H]2CC[C@@H](O)[C@H](OC)C2)C[C@@H](O)[C@H](C)/C=C(\C)[C@@H](O)[C@@H](OC)C(=NOCC(=O)NCc2cnc(N3CCN(C(=O)CCOCCN4CCN(c5ncc(C(=O)N6CCc7cc(Cn8nc(-c9cnc%10[nH]ccc%10c9)c9c(N)ncnc98)ccc7C6)cn5)CC4)CC3)nc2)[C@H](C)C[C@H](C)/C=C/C=C/C=C/1C [Example 31]	< 0.001	0.00316 to 0.0316	> 1
CO[C@H]1C[C@@H]2CC[C@@H](C)[C@@](O)(O2)C(=O)C(=O)N2CCCC[C@H]2C(=O)O[C@H]([C@H](C)C[C@@H]2CC[C@@H](O)[C@H](OC)C2)C[C@@H](O)[C@H](C)/C=C(\C)[C@@H](O)[C@@H](OC)C(=NOCC(=O)NC2CCN(CC(=O)NCCOCCOCCOCCOCCOCCOCCC(=O)N3CCc4cc(Cn5nc(-c6ccc7oc(N)nc7c6)c6c(N)ncnc65)ccc4C3)CC2)[C@H](C)C[C@H](C)/C=C/C=C/C=C/1C [Example 68]	0.001 to 0.01	0.00316 to 0.0316	0.0316 to 1
CO[C@H]1C[C@@H]2CC[C@@H](C)[C@@](O)(O2)C(=O)C(=O)N2CCCC[C@H]2C(=O)O[C@H]([C@H](C)C[C@@H]2CC[C@@H](O)[C@H](OC)C2)C[C@@H](O)[C@H](C)/C=C(\C)[C@@H](O)[C@@H](OC)C(=NOCC(=O)N2CCc3nc(N4CCN(C(=O)CCOCCOCCOCCOCCC(=O)NCCCCn5nc(-c6ccc7oc(N)nc7c6)c6c(N)ncnc65)CC4)ncc3C2)[C@H](C)C[C@H](C)/C=C/C=C/C=C/1C [Example 23]	0.001 to 0.01	0.00316 to 0.0316	0.0316 to 1
CO[C@H]1C[C@@H]2CC[C@@H](C)[C@@](O)(O2)C(=O)C(=O)N2CCCC[C@H]2C(=O)O[C@H]([C@H](C)C[C@@H]2CC[C@@H](O)[C@H](OC)C2)C[C@@H](O)[C@H](C)/C=C(\C)[C@@H](O)[C@@H](OC)C(=NOCC(=O)NCc2cnc(N3CCN(c4ncc(C(=O)NCCOCCC(=O)N5CCc6cc(Cn7nc(-c8ccc9oc(N)nc9c8)c8c(N)ncnc87)ccc6C5)cn4)[C@H](CN(C)C)C3)nc2)[C@H](C)C[C@H](C)/C=C/C=C/C=C/1C [Example 49]	0.001 to 0.01	0.00316 to 0.0316	> 1
CO[C@H]1C[C@@H]2CC[C@@H](C)[C@@](O)(O2)C(=O)C(=O)N2CCCC[C@H]2C(=O)O[C@H]([C@H](C)C[C@@H]2CC[C@@H](O)[C@H](OC)C2)C[C@@H](O)[C@H](C)/C=C(\C)[C@@H](O)[C@@H](OC)C(=NOCC(=O)NCCOCCOCCOCCOCCOCCOCCOCCOCCC(=O)NCCCCn2nc(-c3cnc4[nH]ccc4c3)c3c(N)ncnc32)[C@H](C)C[C@H](C)/C=C/C=C/C=C/1C [Example 6]	0.001 to 0.01	0.00316 to 0.0316	> 1
CO[C@H]1C[C@@H]2CC[C@@H](C)[C@@](O)(O2)C(=O)C(=O)N2CCCC[C@H]2C(=O)O[C@H]([C@H](C)C[C@@H]2CC[C@@H](O)[C@H](OC)C2)C[C@@H](O)[C@H](C)/C=C(\C)[C@@H](O)[C@@H](OC)C(=NOCC(=O)NCCOCCC(=O)N2CCc3nc(N4CCN(c5ncc(C(=O)N6CCc7cc(Cn8nc(-c9ccc%10oc(N)nc%10c9)c9c(N)ncnc98)ccc7C6)cn5)CC4)ncc3C2)[C@H](C)C[C@H](C)/C=C/C=C/C=C/1C [Example 26]	0.001 to 0.01	0.00316 to 0.0316	> 1
CO[C@H]1C[C@@H]2CC[C@@H](C)[C@@](O)(O2)C(=O)C(=O)N2CCCC[C@H]2C(=O)O[C@H]([C@H](C)C[C@@H]2CC[C@@H](O)[C@H](OC)C2)C[C@@H](O)[C@H](C)/C=C(\C)[C@@H](O)[C@@H](OC)C(=NOCC(=O)NCCOCCOCCOCCOCCOCCOCCC(=O)N2CCc3cc(Cn4nc(-c5ccc6oc(N)nc6c5)c5c(N)ncnc54)ccc3C2)[C@H](C)C[C@H](C)/C=C/C=C/C=C/1C [Example 5]	< 0.001	< 0.00316	0.0316 to 1
CO[C@H]1C[C@@H]2CC[C@@H](C)[C@@](O)(O2)C(=O)C(=O)N2CCCC[C@H]2C(=O)O[C@H]([C@H](C)C[C@@H]2CC[C@@H](O)[C@H](OC)C2)C[C@@H](O)[C@H](C)/C=C(\C)[C@@H](O)[C@@H](OC)C(=NOCC(=O)NCc2cnc(N3CCC(N4CCC(C(=O)NCCOCCC(=O)N5CCc6cc(Cn7nc(-c8ccc9oc(N)nc9c8)c8c(N)ncnc87)ccc6C5)CC4)CC3)nc2)[C@H](C)C[C@H](C)/C=C/C=C/C=C/1C [Example 52]	0.001 to 0.01	0.00316 to 0.0316	> 1
CO[C@H]1C[C@@H]2CC[C@@H](C)[C@@](O)(O2)C(=O)C(=O)N2CCCC[C@H]2C(=O)O[C@H]([C@H](C)C[C@@H]2CC[C@@H](O)[C@H](OC)C2)C[C@@H](O)[C@H](C)/C=C(\C)[C@@H](O)[C@@H](OC)C(=NOCC(=O)N2CCc3nc(N4CCN(CCOCCN5CCN(c6ncc(C(=O)N7CCc8cc(Cn9nc(-c%10ccc%11oc(N)nc%11c%10)c%10c(N)ncnc%109)ccc8C7)cn6)CC5)CC4)ncc3C2)[C@H](C)C[C@H](C)/C=C/C=C/C=C/1C [Example 61]	0.001 to 0.01	0.00316 to 0.0316	> 1
CO[C@H]1C[C@@H]2CC[C@@H](C)[C@@](O)(O2)C(=O)C(=O)N2CCCC[C@H]2C(=O)O[C@H]([C@H](C)C[C@@H]2CC[C@@H](O)[C@H](OC)C2)C[C@@H](O)[C@H](C)/C=C(\C)[C@@H](O)[C@@H](OC)C(=NOCC(=O)N2CCc3nc(N4CCN(c5ncc(C(=O)NCCOCCOCCOCCC(=O)NCCCCn6nc(-c7ccc8oc(N)nc8c7)c7c(N)ncnc76)cn5)CC4)ncc3C2)[C@H](C)C[C@H](C)/C=C/C=C/C=C/1C [Example 15]	0.001 to 0.01	0.00316 to 0.0316	0.0316 to 1
CO[C@H]1C[C@@H]2CC[C@@H](C)[C@@](O)(O2)C(=O)C(=O)N2CCCC[C@H]2C(=O)O[C@H]([C@H](C)C[C@@H]2CC[C@@H](O)[C@H](OC)C2)C[C@@H](O)[C@H](C)/C=C(\C)[C@@H](O)[C@@H](OC)C(=NOCC(=O)NCc2cnc(N3CCN(C(=O)CCOCCN4CCN(CCOCCC(=O)N5CCc6cc(Cn7nc(-c8ccc9oc(N)nc9c8)c8c(N)ncnc87)ccc6C5)CC4)CC3)nc2)[C@H](C)C[C@H](C)/C=C/C=C/C=C/1C [Example 40]	0.001 to 0.01	0.00316 to 0.0316	> 1
CO[C@H]1C[C@@H]2CC[C@@H](C)[C@@](O)(O2)C(=O)C(=O)N2CCCC[C@H]2C(=O)O[C@H]([C@H](C)C[C@@H]2CC[C@@H](O)[C@H](OC)C2)C[C@@H](O)[C@H](C)/C=C(\C)[C@@H](O)[C@@H](OC)C(=NOCC(=O)NCc2cnc(N3CCN(C(=O)CN(C)CC(=O)NCCOCCOCCC(=O)NCCCCn4nc(-c5ccc6oc(N)nc6c5)c5c(N)ncnc54)CC3)nc2)[C@H](C)C[C@H](C)/C=C/C=C/C=C/1C [Example 24]	0.001 to 0.01	0.0316 to 1	0.0316 to 1
